# Measured values published in the supplement of paper PMC10307832.
# Assays:
# Experiment in all cases: relative viability (nuclei count vs DMSO), 5 days (fraction); higher = more cells survive
# [1] = test system: A-427
# Summary of the method: (§1)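 Nuclei were stained with Hoechst during a one-step fixation (final 0.05% Triton X-100, 1% formaldehyde, 1 ug/ml Hoechst) carried out 5 days after dosing, then counted on 4× images. The cells, lung cancer lines in 1536-well plates, had been dosed by pin tool the day after seeding with one drug alone or a fixed anchor-drug dose plus five library-drug doses (not always all listed) in √10 steps. Relative viability is the nuclei count in treated wells divided by that in vehicle wells, and each value is the median of duplicate plates.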
# [2] = test system: BEN
# Summary of the method: as §1
# [3] = test system: EKVX
# Summary of the method: as §1
# [4] = test system: LC-2-ad
# Summary of the method: as §1
# [5] = test system: LCLC-97TM1
# Summary of the method: as §1
# [6] = test system: LOU-NH91
# Summary of the method: as §1
# [7] = test system: LU99A
# Summary of the method: as §1
# [8] = test system: NCI-H1355
# Summary of the method: as §1
# [9] = test system: NCI-H1650
# Summary of the method: as §1
# [10] = test system: NCI-H1666
# Summary of the method: as §1
# [11] = test system: NCI-H1915
# Summary of the method: as §1
# [12] = test system: NCI-H1993
# Summary of the method: as §1
# [13] = test system: NCI-H2228
# Summary of the method: as §1
# [14] = test system: NCI-H2347
# Summary of the method: as §1
# [15] = test system: NCI-H23
# Summary of the method: as §1
# [16] = test system: NCI-H460
# Summary of the method: as §1
# [17] = test system: NCI-H520
# Summary of the method: as §1
# [18] = test system: NCI-H650
# Summary of the method: as §1
# [19] = test system: NCI-H838
# Summary of the method: as §1
# [20] = test system: PC-3 [JPC-3]
# Summary of the method: as §1
# [21] = test system: RERF-LC-KJ
# Summary of the method: as §1
# [22] = test system: SW 1573
# Summary of the method: as §1
smiles,measurement,setting,value
O=C(O)CCCCC(CCSCc1ccccc1)SCc1ccccc1 (centres undefined) [CPI-613] + CC(C)C[C@H](NC(=O)[C@H](Cc1ccccc1)NC(=O)c1cnccn1)B(O)O [Bortezomib] (partner 0.002 µM),relative viability,[1]; first compound 5 µM,0.939
same,relative viability,[1]; first compound 15.81 µM,0.901
same,relative viability,[1]; first compound 50 µM,0.96
same,relative viability,[1]; first compound 158.11 µM,0.761
same,relative viability,[1]; first compound 500 µM,0.253
same,relative viability,[2]; first compound 5 µM,0.819
same,relative viability,[2]; first compound 15.81 µM,0.539
same,relative viability,[2]; first compound 50 µM,0.633
same,relative viability,[2]; first compound 158.11 µM,0.708
same,relative viability,[2]; first compound 500 µM,0.658
same,relative viability,[3]; first compound 5 µM,0.864
same,relative viability,[3]; first compound 15.81 µM,0.957
same,relative viability,[3]; first compound 50 µM,1.05
same,relative viability,[3]; first compound 158.11 µM,0.548
same,relative viability,[3]; first compound 500 µM,1.04
same,relative viability,[4]; first compound 5 µM,0.621
same,relative viability,[4]; first compound 15.81 µM,0.932
same,relative viability,[4]; first compound 50 µM,0.979
same,relative viability,[4]; first compound 158.11 µM,0.259
same,relative viability,[4]; first compound 500 µM,0.0023
same,relative viability,[5]; first compound 5 µM,0.728
same,relative viability,[5]; first compound 15.81 µM,0.276
same,relative viability,[5]; first compound 50 µM,0.583
same,relative viability,[5]; first compound 158.11 µM,0.532
same,relative viability,[5]; first compound 500 µM,0.819
same,relative viability,[6]; first compound 5 µM,0.49
same,relative viability,[6]; first compound 15.81 µM,0.524
same,relative viability,[6]; first compound 50 µM,0.393
same,relative viability,[6]; first compound 158.11 µM,0.435
same,relative viability,[6]; first compound 500 µM,0.467
same,relative viability,[7]; first compound 5 µM,1.04
same,relative viability,[7]; first compound 15.81 µM,1.04
same,relative viability,[7]; first compound 50 µM,0.961
same,relative viability,[7]; first compound 158.11 µM,0.815
same,relative viability,[7]; first compound 500 µM,0.08
same,relative viability,[8]; first compound 5 µM,1.2
same,relative viability,[8]; first compound 15.81 µM,1.22
same,relative viability,[8]; first compound 50 µM,1.23
same,relative viability,[8]; first compound 158.11 µM,0.646
same,relative viability,[8]; first compound 500 µM,0.611
same,relative viability,[9]; first compound 5 µM,0.196
same,relative viability,[9]; first compound 15.81 µM,0.204
same,relative viability,[9]; first compound 50 µM,0.187
same,relative viability,[9]; first compound 158.11 µM,0.0869
same,relative viability,[9]; first compound 500 µM,0.0195
same,relative viability,[10]; first compound 5 µM,0.883
same,relative viability,[10]; first compound 15.81 µM,0.603
same,relative viability,[10]; first compound 50 µM,0.757
same,relative viability,[10]; first compound 158.11 µM,0.175
same,relative viability,[10]; first compound 500 µM,0.0891
same,relative viability,[11]; first compound 5 µM,0.992
same,relative viability,[11]; first compound 15.81 µM,0.99
same,relative viability,[11]; first compound 50 µM,0.946
same,relative viability,[11]; first compound 158.11 µM,0.799
same,relative viability,[11]; first compound 500 µM,0.746
same,relative viability,[12]; first compound 5 µM,0.953
same,relative viability,[12]; first compound 15.81 µM,0.918
same,relative viability,[12]; first compound 50 µM,0.943
same,relative viability,[12]; first compound 158.11 µM,0.717
same,relative viability,[12]; first compound 500 µM,0.363
same,relative viability,[13]; first compound 5 µM,0.918
same,relative viability,[13]; first compound 15.81 µM,1.04
same,relative viability,[13]; first compound 50 µM,1.07
same,relative viability,[13]; first compound 158.11 µM,0.217
same,relative viability,[13]; first compound 500 µM,0.0287
same,relative viability,[14]; first compound 5 µM,0.606
same,relative viability,[14]; first compound 15.81 µM,0.833
same,relative viability,[14]; first compound 50 µM,1.2
same,relative viability,[14]; first compound 500 µM,1
same,relative viability,[15]; first compound 5 µM,0.958
same,relative viability,[15]; first compound 15.81 µM,1.1
same,relative viability,[15]; first compound 50 µM,0.895
same,relative viability,[15]; first compound 158.11 µM,0.175
same,relative viability,[15]; first compound 500 µM,0.0214
same,relative viability,[16]; first compound 5 µM,1.07
same,relative viability,[16]; first compound 15.81 µM,1.12
same,relative viability,[16]; first compound 50 µM,0.895
same,relative viability,[16]; first compound 158.11 µM,0.445
same,relative viability,[16]; first compound 500 µM,0.0063
same,relative viability,[17]; first compound 5 µM,0.756
same,relative viability,[17]; first compound 15.81 µM,0.421
same,relative viability,[17]; first compound 50 µM,0.858
same,relative viability,[17]; first compound 158.11 µM,0.169
same,relative viability,[17]; first compound 500 µM,0.0871
same,relative viability,[18]; first compound 5 µM,0.828
same,relative viability,[18]; first compound 15.81 µM,0.617
same,relative viability,[18]; first compound 50 µM,0.92
same,relative viability,[18]; first compound 158.11 µM,0.689
same,relative viability,[18]; first compound 500 µM,0.452
same,relative viability,[19]; first compound 5 µM,0.867
same,relative viability,[19]; first compound 15.81 µM,0.702
same,relative viability,[19]; first compound 50 µM,1.02
same,relative viability,[19]; first compound 158.11 µM,0.425
same,relative viability,[19]; first compound 500 µM,0.0658
same,relative viability,[20]; first compound 5 µM,0.83
same,relative viability,[20]; first compound 15.81 µM,0.695
same,relative viability,[20]; first compound 50 µM,0.755
same,relative viability,[20]; first compound 158.11 µM,0.451
same,relative viability,[20]; first compound 500 µM,0.452
same,relative viability,[21]; first compound 5 µM,1.1
same,relative viability,[21]; first compound 15.81 µM,1.13
same,relative viability,[21]; first compound 50 µM,1.08
same,relative viability,[21]; first compound 158.11 µM,1.07
same,relative viability,[21]; first compound 500 µM,0.958
same,relative viability,[22]; first compound 5 µM,0.951
same,relative viability,[22]; first compound 15.81 µM,0.985
same,relative viability,[22]; first compound 50 µM,0.979
same,relative viability,[22]; first compound 158.11 µM,0.884
same,relative viability,[22]; first compound 500 µM,0.802
